Source: the supplement of paper PMC10307832

Columns and labels:
Test in all cases: relative viability (nuclei count vs DMSO), 5 days (fraction); higher = more cells survive
[1] = compound: CCn1c(-c2nonc2N)nc2c(C#CC(C)(C)O)ncc(OC[C@H]3CCCNC3)c21 + CS(=O)(=O)N1CCN(Cc2cc3nc(-c4cccc5[nH]ncc45)nc(N4CCOCC4)c3s2)CC1 [Pictilisib] (partner 1 µM)
Procedure, shortened: (§1)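 Five library-drug doses in √10 steps were combined with a fixed anchor-drug dose, or a single drug was given alone, by pin tool to lung cancer cell lines in 1536-well plates the day after seeding. Nuclei were stained and counted after 5 days. Relative viability is the nuclei count in treated wells over that in vehicle wells, taken as the median of duplicate plates.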

[2] = compound: CCn1c(-c2nonc2N)nc2c(C#CC(C)(C)O)ncc(OC[C@H]3CCCNC3)c21 + Nc1nc2[nH]cc(CCc3ccc(C(=O)N[C@@H](CCC(=O)O)C(=O)O)cc3)c2c(=O)[nH]1 [Pemetrexed] (partner 0.2 µM)
Procedure, shortened: as §1

BAM7 + Alpelisib = compound: CCOC1=CC=CC=C1N=NC2=C(NN(C2=O)C3=NC(=CS3)C4=CC=CC=C4)C [BAM7] + Cc1nc(NC(=O)N2CCC[C@H]2C(N)=O)sc1-c1ccnc(C(C)(C)C(F)(F)F)c1 [Alpelisib] (partner 2 µM)
Procedure, shortened: as §1

BAM7 + Palbociclib = compound: CCOC1=CC=CC=C1N=NC2=C(NN(C2=O)C3=NC(=CS3)C4=CC=CC=C4)C [BAM7] + CC(=O)c1c(C)c2cnc(Nc3ccc(N4CCNCC4)cn3)nc2n(C2CCCC2)c1=O [Palbociclib] (partner 0.5 µM)
Procedure, shortened: as §1

| Cell Line | relative viability ([1]; first compound 0.01 µM) | relative viability ([1]; first compound 0.03162 µM) | relative viability ([1]; first compound 0.1 µM) | relative viability ([1]; first compound 0.3162 µM) | relative viability ([1]; first compound 1 µM) | relative viability ([2]; first compound 0.01 µM) | relative viability ([2]; first compound 0.03162 µM) | relative viability ([2]; first compound 0.1 µM) | relative viability ([2]; first compound 0.3162 µM) | relative viability ([2]; first compound 1 µM) | relative viability (BAM7 + Alpelisib; first compound 0.5 µM) | relative viability (BAM7 + Alpelisib; first compound 5 µM) | relative viability (BAM7 + Alpelisib; first compound 15.81 µM) | relative viability (BAM7 + Alpelisib; first compound 50 µM) | relative viability (BAM7 + Palbociclib; first compound 0.5 µM) | relative viability (BAM7 + Palbociclib; first compound 5 µM) | relative viability (BAM7 + Palbociclib; first compound 15.81 µM) | relative viability (BAM7 + Palbociclib; first compound 50 µM) |
| --- | --- | --- | --- | --- | --- | --- | --- | --- | --- | --- | --- | --- | --- | --- | --- | --- | --- | --- |
| NCI-H520 | 0.332 | 0.345 | 0.249 | 0.241 | 0.272 | 0.565 | 0.686 | 0.577 | 0.523 | 0.352 | 1.03 | 1.01 | 0.947 | 0.865 | 0.262 | 0.233 | 0.235 | 0.26 |
| RERF-LC-KJ | 0.578 | 0.566 | 0.556 | 0.567 | 0.535 | 0.486 | 0.442 | 0.432 | 0.478 | 0.488 | 0.814 | 0.823 | 0.716 | 0.766 | 0.953 | 0.876 | 0.609 | 0.63 |
| A-427 | 0.754 | 0.649 | 0.747 | 0.732 | 0.554 | 0.925 | 0.999 | 0.876 | 0.91 | 1.08 | 0.687 | 1.16 | 1.11 | 1.06 | 0.507 | 0.49 | 0.498 | 0.532 |
| NCI-H441 | 0.472 | 0.494 | 0.522 | 0.486 | 0.466 | 0.295 | 0.251 | 0.228 | 0.234 | 0.272 | 0.809 | 0.932 | 0.793 | 0.682 | 0.285 | 0.191 | 0.205 | 0.267 |
| NCI-H1792 | 0.322 | 0.276 | 0.252 | 0.233 | 0.249 | 0.759 | 0.684 | 0.632 | 0.782 | 0.687 | 0.782 | 0.85 | 0.624 | 0.708 | 0.642 | 0.687 | 0.624 | 0.66 |
| SK-LU-1 | 0.64 | 0.715 | 0.498 | 0.575 | 0.617 | 0.869 | 0.985 | 0.823 | 0.929 | 0.855 | 0.703 | 1.1 | 0.955 | 1.09 | 0.399 | 0.405 | 0.43 | 0.453 |
| PC-3 [JPC-3] | 0.754 | 0.744 | 0.762 | 0.695 | 0.643 | 1.01 | – | 1.03 | 0.946 | 1.17 | 1.02 | 0.99 | 0.876 | 0.907 | 0.49 | 0.533 | 0.462 | 0.531 |
| EMC-BAC-2 | 0.563 | 0.51 | 0.497 | 0.493 | 0.528 | 0.391 | 0.427 | 0.443 | 0.43 | 0.427 | 0.801 | 0.778 | 0.713 | 0.772 | 0.512 | 0.519 | 0.524 | 0.563 |
| LK-2 | 0.509 | 0.577 | 0.503 | 0.589 | 0.729 | 0.277 | 0.333 | 0.269 | 0.204 | 0.234 | 1.14 | 1.78 | 1.16 | 0.874 | 0.662 | 0.648 | 0.741 | 0.598 |
| NCI-H2126 | 0.548 | 0.496 | 0.494 | 0.442 | 0.449 | 0.706 | 0.692 | 0.684 | 0.731 | 0.669 | 0.703 | 0.677 | 0.606 | 0.704 | 0.334 | 0.332 | 0.345 | 0.362 |
| NCI-H3122 | 0.606 | 0.612 | 0.634 | 0.598 | 0.55 | 0.206 | 0.208 | 0.201 | 0.195 | 0.2 | 0.881 | 0.822 | 0.804 | 0.763 | 0.174 | 0.225 | 0.186 | 0.198 |
| NCI-H1975 | 0.335 | 0.255 | 0.314 | 0.235 | 0.261 | 0.278 | 0.323 | 0.29 | 0.279 | 0.295 | 0.539 | 0.508 | – | 0.548 | 0.565 | 0.555 | 0.519 | 0.652 |
| NCI-H1944 | 0.357 | 0.276 | 0.284 | 0.35 | 0.334 | 0.618 | 0.622 | 0.657 | 0.565 | 0.631 | 0.875 | 0.902 | 0.661 | 0.81 | 0.365 | 0.366 | 0.281 | 0.37 |
| LU99A | 0.33 | 0.353 | 0.294 | 0.293 | 0.324 | 0.182 | 0.201 | 0.154 | 0.141 | 0.193 | 0.588 | 0.489 | 0.532 | 0.597 | 0.425 | 0.372 | 0.383 | 0.414 |
| SW 1573 | 0.432 | 0.395 | 0.453 | 0.447 | 0.365 | 0.772 | 0.773 | 0.765 | 0.646 | 0.736 | 0.777 | 0.833 | 0.85 | 0.75 | 0.433 | 0.396 | 0.356 | 0.391 |
| NCI-H2347 | 0.456 | 0.675 | 0.0164 | 0.858 | 0.472 | 0.46 | 0.399 | 0.385 | 0.432 | 0.39 | 1.03 | 1.23 | 1.04 | 0.985 | 0.426 | 0.457 | 0.425 | 0.367 |
| NCI-H2009 | 0.89 | 0.855 | 0.745 | 0.798 | 0.752 | 1.08 | 1.09 | 1.06 | 1.14 | 1.06 | 1.21 | 1.15 | 1.1 | 1.15 | 0.189 | 0.189 | 0.228 | 0.29 |
| HCC-15 | 0.689 | 0.724 | 0.685 | 0.738 | 0.743 | 0.218 | 0.225 | 0.218 | 0.211 | 0.209 | 0.907 | 0.923 | 0.883 | 0.853 | 0.621 | 0.694 | 0.614 | 0.686 |
| HCC-44 | 0.613 | 0.562 | 0.477 | 0.679 | 0.556 | 0.633 | 0.649 | 0.661 | 0.577 | 0.636 | 0.829 | 0.708 | 0.702 | 0.735 | 0.956 | 0.974 | 0.925 | 0.981 |
| COR-L23 | 0.794 | 0.759 | 0.727 | 0.705 | 0.674 | 0.212 | 0.207 | 0.202 | 0.187 | 0.196 | 0.804 | 0.714 | 0.685 | 0.752 | 0.284 | 0.315 | 0.294 | 0.275 |
| HCC-78 | 0.191 | 0.217 | 0.194 | 0.187 | 0.177 | 0.864 | 0.92 | 0.952 | 0.871 | 0.669 | 0.395 | 0.21 | 0.294 | 0.365 | 0.487 | 0.383 | 0.49 | 0.45 |
| NCI-H2087 | 0.823 | 0.843 | 0.805 | 0.891 | 0.894 | 0.614 | – | 0.646 | 0.615 | 0.613 | 1.17 | 1.15 | 0.917 | 0.985 | 0.272 | 0.255 | 0.229 | 0.292 |
| BEN | 0.565 | 0.584 | 0.489 | 0.574 | 0.596 | 0.779 | 0.821 | 0.605 | 0.753 | 0.773 | 1.11 | 0.948 | 0.903 | 1.08 | 0.491 | 0.493 | 0.546 | 0.492 |
| LCLC-103H | 0.591 | 0.59 | 0.527 | 0.622 | 0.625 | 0.449 | 0.498 | 0.476 | 0.456 | 0.439 | 0.998 | 0.837 | 1.08 | 0.984 | 0.507 | 0.493 | 0.484 | 0.529 |
| EKVX | 0.466 | 0.468 | 0.425 | 0.411 | 0.463 | 0.424 | 0.388 | 0.409 | 0.393 | 0.355 | 0.891 | 0.794 | 0.513 | 0.597 | 0.444 | 0.39 | 0.337 | 0.429 |
| LXF-289 | 0.765 | 0.798 | 0.715 | 0.723 | 0.793 | 0.922 | 0.95 | 0.925 | 0.84 | 0.938 | 1.1 | 1.11 | 1.02 | 1.07 | 0.63 | 0.62 | 0.616 | 0.616 |
| NCI-H650 | 0.867 | 0.96 | 0.968 | 0.521 | 0.758 | 0.957 | 0.862 | 0.988 | 1.02 | 0.919 | 1.03 | 1.33 | 1.04 | 1.08 | 0.324 | 0.32 | 0.272 | 0.318 |
| NCI-H2085 | 0.436 | 0.437 | 0.373 | 0.404 | 0.462 | 0.934 | 0.88 | 0.914 | 0.873 | 0.992 | 0.957 | 1.07 | 0.834 | 0.981 | 0.462 | 0.483 | 0.446 | 0.45 |
| NCI-H1793 | 0.282 | 0.322 | 0.378 | 0.346 | 0.317 | 0.864 | 0.917 | – | 0.845 | 0.923 | 0.752 | 0.892 | 0.541 | 0.675 | 0.252 | 0.291 | 0.251 | 0.34 |
| LC-2-ad | 0.303 | 0.507 | 0.505 | 0.385 | 0.397 | 0.267 | 0.283 | 0.261 | 0.262 | 0.272 | 0.998 | 0.893 | 0.746 | 0.855 | 0.487 | 0.478 | 0.545 | 0.485 |
